One compound from paper PMC9814901, “One-pot synthesis of cyclic-aminotropiminium carboxylate derivatives with DNA binding and anticancer properties” (Communications Chemistry, 2022) can be followed below.

For series [1], the system named is human genomic DNA. Nature of the series: Agarose gel electrophoresis of human genomic DNA treated with cATC derivatives. Type of series: binding. As to conditions: 1% agarose gel; EtBr control. From the text: (§1) Further, we examined the effect of cATC derivatives (6a/6e/6j/6n) on the ct-DNA duplex structure by circular dichroism (CD) studies. We recorded the CD spectra of ct-DNA with the increasing concentration of cATC derivatives (SM, Fig. S24). […] Next, we examined the binding site of cATC derivative (ligand) at the DNA duplex structure by using AutoDock-Vina, a well-reported computational docking program. We performed docking of cATC derivatives (6a/6d/6k) crystal structure (ligand) with dodecamer DNA duplex crystal structure (PDB ID-1BNA) as the receptor. Our docking results strongly support the non-covalent interaction of cATC derivatives (6a/6d/6k) at the DNA-minor groove with the binding affinity ~7.0 Kcal/mole, mostly hydrophobic interactions (SM, Figs. S25–7, Table S8). […] Overall, cATC derivatives non-covalently bind with DNA duplex through the non-intercalative mode without affecting the native duplex structure. Next, we examined the DNA binding affinity of cATC derivatives (6e/6j/6n) by gel-electrophoresis. The different concentrations of human genomic DNA were treated with EtBr (control) and cATC derivatives (6e/6j/6n) and ran on 1% agarose gel (SM, Fig. S28A–D). […] Further, the Microscale thermophoresis (MST) technique was used to calculate the binding affinities of cATC derivatives (6e/6j/6n) (20 µM) with varying concentrations of human genomic DNA (40 fM to 75 pM).

Series [2] has as its system 4T1 cell derived tumor. Briefly: 4T1 xenograft tumor growth in Balb/C mice. It counts as in vivo, mouse. As to conditions: Balb/C 4T1 model, 6e 1 mg/kg/day, 6j 0.5 mg/kg/day, 6n 1 mg/kg/day. The procedure:
To understand the potential and tolerance of 6e, 6j, and 6n compounds using in vivo system, we used Balb/C 4T1 cell line xenograft mouse model. Treatment was initiated after tumors reached a mean value of 20.47 mm^3 (day 8) and treated with 6e, 6j, and 6n at a dosage of 1 mg/kg/day, 0.5 mg/kg/day, and 1 mg/kg/day, respectively. Body weight and activity were observed three days post injection, every alternative day. […] Based on this study, we deduced that these compounds are well tolerated by the animals.
All animal experiments were approved by the Institutional Animal Ethics Committee, NISER, India (AH-214). Female BALB/c mice (aged 6–8 weeks, 18–20 g) were injected with 1 × 10^6 4T1 breast cancer cells into the mammary fat pad. After one week, 6j (0.5 mg/kg), 6e (1 mg/kg) and 6n (1 mg/kg) compounds were injected intraperitoneally in mice at the interval of every 24 h for a period of 21 days. Thereafter, the mice were sacrificed and the xenograft tumors were removed, weighed, and photographed.

Series [3] concerns human genomic DNA. Briefly: Microscale thermophoresis (MST) binding of cATC derivatives to human genomic DNA. As to conditions: cATC derivative 20 µM, human genomic DNA 40 fM to 75 pM. The source says:
Further, we examined the effect of cATC derivatives (6a/6e/6j/6n) on the ct-DNA duplex structure by circular dichroism (CD) studies. We recorded the CD spectra of ct-DNA with the increasing concentration of cATC derivatives (SM, Fig. S24). […] Next, we examined the binding site of cATC derivative (ligand) at the DNA duplex structure by using AutoDock-Vina, a well-reported computational docking program. We performed docking of cATC derivatives (6a/6d/6k) crystal structure (ligand) with dodecamer DNA duplex crystal structure (PDB ID-1BNA) as the receptor. Our docking results strongly support the non-covalent interaction of cATC derivatives (6a/6d/6k) at the DNA-minor groove with the binding affinity ~7.0 Kcal/mole, mostly hydrophobic interactions (SM, Figs. S25–7, Table S8). […]
DNA was isolated from 10 × 10^6 HeLa cells by QIAmp DNA mini Kit (Qiagen, Germany). cATC derivatives (6e, 6j, and 6n dissolved in a mixture of 1X PBS containing 1% DMSO) and DNA ranging from a concentration of 40 fM to 75pM (resuspended in 1X TE with 0.05% Tween-20), was used for analyzing the interaction of cATC derivatives with DNA. […] 15 µl of the above mixture was loaded in capillaries and binding affinity was measured using the NanoTemper instrument followed by analysis through NanoTemper analysis 1.2.231 software.

The subject of series [4] is HeLa cells. Nature of the series: MTS cell viability assay in HeLa. It counts as cell-based. As to conditions: for IC50: Homo sapiens. The procedure: (§2) We investigated the effect of nine cATC derivatives (6b/6d/6e/6f/6i/6j/6k/6l/6n) on cell viability in cancer cell-line HeLa and transformed normal cell-line HEK293. We treated cells with the varying concentrations of the compounds ranging from 10 nM to 50 μM for 18 h (optimized).
(§3) MTS assay (CellTiter 96® AQueous One Solution Cell Proliferation Assay (Promega, USA) was used to determine the cell viability. HeLa and HEK293 cells (20,000 cells in each well) were plated in 96 well plate and treated with 6e, 6j, and 6n varying concentrations of the compounds ranging from 10 nM to 50 μM for 18 h. The assay was carried out according to the manufacturer’s instructions. Finally, the plate was read in Varioskan™ LUX multimode microplate reader (Thermo Fisher Scientific) at 490 nm.
(§4) Cell scavenging activity was calculated using the following formula:
(§5) OD(490nm) (control) – OD(490nm) (Test)/OD(490nm) (control) × 100%
(§6) Cell Viability of the cell was calculated using the following formula: […]
On the technique in general: Formazan colour is commonly taken as a measure of viable cells.

The nature of series [5]: MTS cell viability assay in HeLa. It counts as cell-based. As to conditions: human, HeLa cells; HeLa, 50 μM, 18 h. The procedure:
as §2, §3, §4, §5, §6

In series [6] the test system is ct-DNA duplex. Nature of the series: Circular dichroism of ct-DNA with cATC derivatives. Type of series: binding. As to conditions: increasing concentration of cATC derivatives.
Source text: as §1

Series [7] relates to HeLa cells. Briefly: Apoptosis analysis, FITC Annexin V / PI flow cytometry. Type of series: cell-based. As to conditions: IC50 concentration, 18 h. How it is done:
The apoptotic effect of 6e, 6j, and 6n compounds on cancer cells was detected using FITC Annexin V Apoptosis Detection Kit I (BD Pharmingen™, NJ, USA) according to the manufacturer’s protocol. 0.5 × 10^6 […] HeLa cells were seeded in a 6-well plate and treated with IC50 concentrations for 18 h. Harvested cells were incubated with Annexin V FITC and PI PE-conjugated antibody and apoptosis was evaluated using FACSCalibur (BD Biosciences, CA, USA) flow cytometry. Data were analyzed using CellQuest Pro software (BD Biosciences).
(In general: In flow cytometry, cells or beads pass a laser one at a time.)

Usually IC50 stands for the concentration needed to halve the response being measured. Low readings indicate greater potency, high ones weaker potency. A word on the viability: it is the share of living cells, or the viability signal relative to a control. Turning to `Cc1cccc(C2C(C(=O)[O-])N(CCc3ccccc3)c3ccccc[c+]3N2Cc2ccccc2)c1` (centres unmarked) [Compound 6e], the “visibility of DNA-bound compound on agarose gel under UV light” value in series [1] is given as “signal was equivalent to EtBr”. In addition, in series [2] (day 8 till day 20), the “tumor growth / tumor size” value is reported as “inhibit tumor growth in vivo”. Also, in series [2] (intraperitoneal), the “behavior/activity versus control group” value is recorded as “normal behavior/activity” and the “body weight versus control group” value is listed as “no significant difference in body weight”. Further, the “Hill's coefficient (nH)” value in series [3] is recorded as 1.6. Besides, in series [4] (10 nM to 50 μM, 18 h), the “effect on HeLa cell proliferation” value is listed as “retarded HeLa cell proliferation in a dose dependent manner”. The compound also had a Cell scavenging in series [4] (HeLa, 50 μM, 18 h) of 84.74%. In series [4] (HeLa, values given in rebuttal letter of peer review file), the IC50 is 25.4 µM. Moreover, in series [4] (MTS, 18 h, cell line not named in the sentence (HeLa implied)), the IC50 was 25.3 µM. Further, the viability at 18 h, 50 µM in series [5] came out at 15.2%. For the same compound, the “effect on B-type duplex CD spectrum of ct-DNA” value in series [6] is given as “almost remained unchanged”. For the same compound, the “Late Apoptotic cells (FITC-AV+/PI+)” value in series [7] (control 2.9 %) is listed as 15.6%. For the same compound, in series [7] (control 3.6 %), the “Early Apoptotic cells (FITC-AV+/PI-)” value came out at 62.5%. For the same compound, the “cells entered into apoptotic phase” value in series [7] (control 6.5%) was determined as 78.2%.
